The values below come from BindingDB's records for doi:10.1016/j.chembiol.2016.02.015 (Max Planck Institute of Molecular Physiology, 2016).

For experiment [1], the target named is Casein kinase I isoform alpha (Homo sapiens, UniProt P48729). In words: Radiometric-Based Assay (CK1α). The method, then: Single-point measurements analyses and subsequent dose-dependent investigations of selected pteridine derivatives for inhibition of CK1α were performed at Reaction Biology (USA) using a radiometric-based assay and ATP concentration of 10 µM. For more details related to the experimental conditions employed please consult the following websites: http://www.reactionbiology.com/webapps/site/KinaseDetail.aspx.
Sequence of Casein kinase I isoform alpha (P48729 whole entry, canonical isoform): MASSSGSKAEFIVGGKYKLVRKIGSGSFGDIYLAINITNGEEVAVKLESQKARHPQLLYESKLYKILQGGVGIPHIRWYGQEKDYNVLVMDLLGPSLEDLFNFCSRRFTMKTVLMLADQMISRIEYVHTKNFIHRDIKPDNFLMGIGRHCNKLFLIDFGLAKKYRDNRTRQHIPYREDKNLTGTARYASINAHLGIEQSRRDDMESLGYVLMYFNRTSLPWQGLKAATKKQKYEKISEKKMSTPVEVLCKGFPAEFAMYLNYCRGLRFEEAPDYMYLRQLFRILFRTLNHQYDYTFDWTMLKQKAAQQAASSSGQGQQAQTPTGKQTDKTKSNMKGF

Experiment [2] has as its target Casein kinase I isoform epsilon (Homo sapiens, UniProt P49674). In words: KinaseGlo Plus Luminescent Assay. Conditions: pH 7.5. How it is done:
(§1) A stock solution of 5 % DMSO (BioReagent for molecular biology, Sigma Aldrich) in water was prepared. The CK1 substrate peptide RRKDLHDDEEDEAMSITA (Jena Bioscience, cat. no. PE-206, 2 mM stock solution in water) was diluted in water to a final concentration of 250 μM. CK1δ or CK1Ɛ kinases were diluted with CK1 dilution buffer to 50 ng / µL. In addition, fresh Reaction buffer was prepared containing 250 mM Tris-HCl (pH 7.5), 50 mM MgCl2, 5 mM DTT and 0.5 mg / mL bovine serum albumin (BSA). Compounds were serially diluted in 5 % DMSO solution to the desired concentrations (maximal concentration employed in the assay was 50 µM). Additional samples included blank sample containing Reaction buffer, water and CK1δ / CK1Ɛ kinase and control sample containing Reaction buffer, CK1 substrate peptide and CK1δ / CK1Ɛ kinase. CK1 substrate peptide, Reaction buffer and CK1δ / CK1Ɛ kinase stock solutions were mixed in 1:1:1 ratio. 6 μL of this mixtur
(In general: Kinase-Glo measures the ATP left after a reaction by luminescence.)

Experiment [3] has as its target Casein kinase I isoform delta (Homo sapiens, UniProt P48730). Description: KinaseGlo Plus Luminescent Assay. Conditions: pH 7.5. The method, then:
as §1

For experiment [4], the target named is T1, Eukaryotic elongation factor 2 kinase (Homo sapiens, UniProt O00418).
T1 sequence (O00418 whole entry): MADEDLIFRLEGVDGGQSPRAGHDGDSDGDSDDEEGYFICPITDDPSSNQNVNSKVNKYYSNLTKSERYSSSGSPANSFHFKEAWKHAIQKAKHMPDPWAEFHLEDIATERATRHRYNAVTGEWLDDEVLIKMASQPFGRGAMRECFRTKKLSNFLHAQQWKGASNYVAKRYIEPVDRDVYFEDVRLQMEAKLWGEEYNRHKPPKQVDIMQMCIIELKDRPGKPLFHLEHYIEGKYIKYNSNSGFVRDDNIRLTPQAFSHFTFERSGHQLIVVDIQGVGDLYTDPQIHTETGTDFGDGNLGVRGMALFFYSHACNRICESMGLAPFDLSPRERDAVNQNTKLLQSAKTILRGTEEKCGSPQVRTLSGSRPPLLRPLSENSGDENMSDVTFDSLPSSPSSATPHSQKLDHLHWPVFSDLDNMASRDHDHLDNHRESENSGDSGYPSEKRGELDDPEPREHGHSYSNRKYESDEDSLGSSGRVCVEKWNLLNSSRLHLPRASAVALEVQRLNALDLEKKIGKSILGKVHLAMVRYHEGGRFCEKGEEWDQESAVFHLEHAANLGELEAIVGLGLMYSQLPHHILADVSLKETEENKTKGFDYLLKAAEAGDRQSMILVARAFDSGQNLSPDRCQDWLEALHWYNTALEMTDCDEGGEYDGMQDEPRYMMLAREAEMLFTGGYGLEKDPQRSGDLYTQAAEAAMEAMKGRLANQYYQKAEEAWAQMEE
In words: Radiometric-Based Assay (Epiblastin A). An excerpt: (§2) Dose-dependent investigations of Epiblastin A against BrSK1, Egfr, eEF2k, Mknk2, Ripk2 and Stk10 have been performed under the same experimental setup, i.e. at Km-ATP value. Half-maximal inhibitory concentrations (IC50) were obtained by fitting the obtained data with three parameter nonlinear regression analysis using GraphPad Prism version 6.00 for Windows (GraphPad Software, USA). For more details related to the experimental conditions employed at Eurofins please consult the following website: http://www.eurofins.com/pharma-services/pharma-discovery-services/services/in-vitropharmacology/kinases/biochemical.aspx

For experiment [5], the target named is MAP kinase-interacting serine/threonine-protein kinase 2 (Homo sapiens, UniProt Q9HBH9). In words: Radiometric-Based Assay (Epiblastin A).
Sequence of MAP kinase-interacting serine/threonine-protein kinase 2 (Q9HBH9 whole entry): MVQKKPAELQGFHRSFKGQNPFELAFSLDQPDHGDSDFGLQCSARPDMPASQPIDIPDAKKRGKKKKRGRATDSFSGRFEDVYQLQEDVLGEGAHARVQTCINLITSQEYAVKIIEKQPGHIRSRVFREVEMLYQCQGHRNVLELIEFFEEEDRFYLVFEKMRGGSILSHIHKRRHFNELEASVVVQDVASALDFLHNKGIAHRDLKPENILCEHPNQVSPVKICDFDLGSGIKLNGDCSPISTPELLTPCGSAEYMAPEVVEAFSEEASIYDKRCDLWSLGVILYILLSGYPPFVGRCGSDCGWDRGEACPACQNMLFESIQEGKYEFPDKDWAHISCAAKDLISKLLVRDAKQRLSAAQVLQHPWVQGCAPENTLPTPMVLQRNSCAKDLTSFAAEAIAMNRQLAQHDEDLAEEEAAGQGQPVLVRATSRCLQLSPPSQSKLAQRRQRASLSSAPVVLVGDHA
Text: as §2

Experiment [6] addresses T2, Serine/threonine-protein kinase BRSK1 (Homo sapiens, UniProt Q8TDC3).
T2 sequence (Q8TDC3 whole entry): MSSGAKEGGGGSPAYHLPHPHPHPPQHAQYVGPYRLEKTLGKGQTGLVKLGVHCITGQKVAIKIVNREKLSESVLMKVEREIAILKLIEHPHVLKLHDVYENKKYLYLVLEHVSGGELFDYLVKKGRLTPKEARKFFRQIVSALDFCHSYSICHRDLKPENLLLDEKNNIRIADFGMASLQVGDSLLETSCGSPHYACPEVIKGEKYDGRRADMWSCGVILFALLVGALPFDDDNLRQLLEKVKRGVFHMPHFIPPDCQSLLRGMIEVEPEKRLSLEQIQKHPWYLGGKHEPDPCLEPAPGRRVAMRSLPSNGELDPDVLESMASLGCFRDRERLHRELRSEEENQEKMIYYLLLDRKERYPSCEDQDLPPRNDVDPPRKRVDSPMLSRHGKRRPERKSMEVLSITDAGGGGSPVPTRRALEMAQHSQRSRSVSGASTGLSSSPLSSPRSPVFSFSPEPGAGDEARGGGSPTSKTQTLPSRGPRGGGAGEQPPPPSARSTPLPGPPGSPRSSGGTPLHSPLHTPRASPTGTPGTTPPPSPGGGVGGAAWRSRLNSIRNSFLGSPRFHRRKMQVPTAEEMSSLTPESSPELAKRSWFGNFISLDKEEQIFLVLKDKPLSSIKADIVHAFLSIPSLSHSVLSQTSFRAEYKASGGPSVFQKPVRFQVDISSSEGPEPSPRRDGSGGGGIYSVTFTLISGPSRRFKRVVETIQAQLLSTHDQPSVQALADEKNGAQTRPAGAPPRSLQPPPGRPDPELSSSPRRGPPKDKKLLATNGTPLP
In words: Radiometric-Based Assay (Epiblastin A).
Text: as §2

Experiment [7] has as its target Receptor-interacting serine/threonine-protein kinase 2 (Homo sapiens, UniProt O43353). In words: Radiometric-Based Assay (Epiblastin A).
Text: as §2

Experiment [8] concerns the target T3, Epidermal growth factor receptor [1-973] (Homo sapiens, UniProt P00533).
T3 construct: 1-973
Description: Radiometric-Based Assay (Epiblastin A).
Text: as §2

Sequence of Casein kinase I isoform epsilon (P49674 whole entry, canonical isoform): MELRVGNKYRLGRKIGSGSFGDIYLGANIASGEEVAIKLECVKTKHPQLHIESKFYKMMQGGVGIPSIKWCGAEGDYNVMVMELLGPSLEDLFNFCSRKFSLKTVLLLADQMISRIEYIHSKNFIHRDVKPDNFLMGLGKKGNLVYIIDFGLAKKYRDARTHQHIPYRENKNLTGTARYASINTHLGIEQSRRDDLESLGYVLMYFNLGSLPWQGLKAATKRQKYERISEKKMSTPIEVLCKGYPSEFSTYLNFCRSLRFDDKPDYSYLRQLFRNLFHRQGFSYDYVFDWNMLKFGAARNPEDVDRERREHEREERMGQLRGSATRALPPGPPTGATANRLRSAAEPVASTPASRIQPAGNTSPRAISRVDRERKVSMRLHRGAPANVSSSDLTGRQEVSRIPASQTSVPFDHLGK
Sequence of Casein kinase I isoform delta (P48730 whole entry, canonical isoform): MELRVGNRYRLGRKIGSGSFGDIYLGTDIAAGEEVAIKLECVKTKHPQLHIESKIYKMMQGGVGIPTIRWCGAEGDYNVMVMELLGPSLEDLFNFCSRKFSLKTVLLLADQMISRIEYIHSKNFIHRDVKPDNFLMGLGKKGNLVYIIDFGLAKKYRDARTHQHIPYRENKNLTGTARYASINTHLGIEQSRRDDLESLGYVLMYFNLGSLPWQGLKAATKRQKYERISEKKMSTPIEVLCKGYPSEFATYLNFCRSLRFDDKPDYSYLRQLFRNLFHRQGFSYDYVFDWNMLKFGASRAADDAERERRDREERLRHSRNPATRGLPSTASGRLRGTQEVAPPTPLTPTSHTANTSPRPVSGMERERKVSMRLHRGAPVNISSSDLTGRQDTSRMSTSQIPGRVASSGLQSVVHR
T3 sequence (P00533 1-973): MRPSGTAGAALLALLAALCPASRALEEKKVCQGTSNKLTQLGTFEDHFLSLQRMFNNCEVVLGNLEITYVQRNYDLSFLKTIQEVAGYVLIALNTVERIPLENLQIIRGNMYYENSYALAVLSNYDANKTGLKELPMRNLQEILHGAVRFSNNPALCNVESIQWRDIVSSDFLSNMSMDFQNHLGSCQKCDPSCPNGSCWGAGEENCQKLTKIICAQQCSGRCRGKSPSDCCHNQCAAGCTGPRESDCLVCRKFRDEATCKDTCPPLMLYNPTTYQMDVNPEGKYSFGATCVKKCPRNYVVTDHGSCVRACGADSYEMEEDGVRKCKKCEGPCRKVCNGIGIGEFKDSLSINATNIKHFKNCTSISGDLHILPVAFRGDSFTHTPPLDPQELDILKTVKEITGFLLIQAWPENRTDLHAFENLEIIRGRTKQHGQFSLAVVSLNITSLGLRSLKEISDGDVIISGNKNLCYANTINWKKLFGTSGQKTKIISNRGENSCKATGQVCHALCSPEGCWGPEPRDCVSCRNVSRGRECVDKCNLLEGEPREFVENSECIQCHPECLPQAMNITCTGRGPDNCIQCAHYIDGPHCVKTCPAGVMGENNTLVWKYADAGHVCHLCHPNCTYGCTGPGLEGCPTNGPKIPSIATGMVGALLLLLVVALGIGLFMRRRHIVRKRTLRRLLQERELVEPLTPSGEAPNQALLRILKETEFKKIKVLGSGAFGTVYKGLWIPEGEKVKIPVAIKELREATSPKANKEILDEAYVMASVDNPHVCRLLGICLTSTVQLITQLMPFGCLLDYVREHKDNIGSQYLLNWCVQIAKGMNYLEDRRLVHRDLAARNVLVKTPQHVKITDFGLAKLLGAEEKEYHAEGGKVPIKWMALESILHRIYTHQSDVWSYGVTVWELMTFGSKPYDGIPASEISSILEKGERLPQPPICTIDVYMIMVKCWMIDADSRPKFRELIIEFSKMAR
Sequence of Receptor-interacting serine/threonine-protein kinase 2 (O43353 whole entry): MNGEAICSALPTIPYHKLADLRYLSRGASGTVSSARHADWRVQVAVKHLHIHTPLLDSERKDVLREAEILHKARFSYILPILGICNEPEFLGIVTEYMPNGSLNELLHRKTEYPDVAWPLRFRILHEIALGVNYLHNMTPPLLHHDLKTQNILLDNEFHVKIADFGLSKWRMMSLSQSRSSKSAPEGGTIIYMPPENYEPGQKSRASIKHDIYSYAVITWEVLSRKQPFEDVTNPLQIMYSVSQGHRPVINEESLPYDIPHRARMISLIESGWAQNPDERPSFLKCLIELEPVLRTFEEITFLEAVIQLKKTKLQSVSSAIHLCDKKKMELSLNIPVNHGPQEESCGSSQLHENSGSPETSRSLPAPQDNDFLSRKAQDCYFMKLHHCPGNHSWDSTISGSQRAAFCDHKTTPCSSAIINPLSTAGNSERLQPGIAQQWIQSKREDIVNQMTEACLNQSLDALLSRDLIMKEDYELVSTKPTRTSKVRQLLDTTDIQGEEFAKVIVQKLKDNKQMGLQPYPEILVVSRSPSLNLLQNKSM

`Nc1nc(N)c2nc(-c3csc4ccccc34)c(N)nc2n1` [6-(1-benzothiophen-3-yl)pteridine-2,4,7-triamine (31)]: the figures for the IC50 in experiment [1], in experiment [2] and in experiment [3] were 5.6 µM, 0.6 µM and 2.8 µM, respectively.

Turning to `Nc1nc(N)c2nc(-c3ccc(Cl)cc3Cl)c(N)nc2n1` [6-(2,4-dichlorophenyl)pteridine-2,4,7-triamine (25)], the values for the IC50 in experiment [1] and in experiment [2] were 55.6 µM and 4.3 µM, respectively.

`Nc1nc(N)c2nc(-c3cc(F)ccc3F)c(N)nc2n1` [6-(2,5-difluorophenyl)pteridine-2,4,7-triamine (28)]: the IC50 in experiment [2] was found to be 38.4 µM.

Regarding `Nc1nc(N)c2nc(-c3c(Cl)cccc3Cl)c(N)nc2n1` [6-(2,6-dichlorophenyl)pteridine-2,4,7-triamine (24)], the IC50 in experiment [2] was found to be 38.9 µM.

On to `Nc1nc(N)c2nc(-c3c(F)cccc3F)c(N)nc2n1` [6-(2,6-difluorophenyl)pteridine-2,4,7-triamine (27)], for which the figures for the IC50 in experiment [2] and in experiment [3] were 51.5 µM and 35.7 µM, respectively.

As for `Nc1nc(N)c2nc(-c3ccccc3F)c(N)nc2n1` [6-(2-fluorophenyl)pteridine-2,4,7-triamine (23)], the IC50 in experiment [2] amounted to 28.3 µM.

`Nc1cccc(-c2nc3c(N)nc(N)nc3nc2N)c1` [6-(3-aminophenyl)pteridine-2,4,7-triamine (21)]: the IC50 in experiment [2] stood at 12.4 µM; in experiment [3], 32.4 µM.

In the case of `Nc1nc(N)c2nc(-c3cccc(Br)c3)c(N)nc2n1` [6-(3-bromophenyl)pteridine-2,4,7-triamine (18)], the IC50 in experiment [1] was 9.3 µM; in experiment [3] it was 2.5 µM.

As for `Nc1nc(N)c2nc(-c3cccc(F)c3)c(N)nc2n1` [6-(3-fluorophenyl)pteridine-2,4,7-triamine (16)], the IC50 in experiment [1] was 33.3 µM; in experiment [2], 14.4 µM; in experiment [3], 61.8 µM.

Regarding `COc1cccc(-c2nc3c(N)nc(N)nc3nc2N)c1` [6-(3-methoxyphenyl)pteridine-2,4,7-triamine (20)], the results for the IC50 in experiment [2] and in experiment [3] were 26.3 µM and 12.3 µM, respectively.

Consider `Nc1ccc(-c2nc3c(N)nc(N)nc3nc2N)cc1` [6-(4-aminophenyl)pteridine-2,4,7-triamine (10)], for which the IC50 in experiment [3] turned out to be 81.2 µM.

For the compound `Nc1nc(N)c2nc(-c3cccnc3)c(N)nc2n1` [6-(pyridin-3-yl)pteridine-2,4,7-triamine (33)], the IC50 in experiment [2] is 15.5 µM; in experiment [3] it was 16.1 µM.

With `Nc1nc(N)c2nc(-c3cccs3)c(N)nc2n1` [6-(thiophen-2-yl)pteridine-2,4,7-triamine (32)], the IC50 in experiment [1] was 14.2 µM; in experiment [2], 8.1 µM; in experiment [3], 24.4 µM.

As to `Cc1cccc(-c2nc3c(N)nc(N)nc3nc2N)c1` [6-m-Tolyl-pteridine-2,4,7-triamine], in experiment [3], the IC50 was found to be 20.2 µM.

Consider `Nc1nc(N)c2nc(-c3ccccc3)cnc2n1` [6-phenylpteridine-2,4-diamine (35)], for which the IC50 came to 29.5 µM in experiment [1], 6 µM in experiment [2] and 80.6 µM in experiment [3].

Consider `Nc1nc(N)c2nc(-c3cccc(Oc4ccccc4)c3)c(Cc3ccccc3)nc2n1` [7-benzyl-6-(3-phenoxyphenyl)pteridine-2,4-diamine (36)], for which the half-maximal inhibitory concentration (IC50) in experiment [1] came out at 5.5 µM; in experiment [2] it was 6.6 µM; in experiment [3] it was 9.6 µM.

In the case of `Nc1nc(N)c2nc(-c3cccc(Cl)c3)c(N)nc2n1` [Epiblastin A], the IC50 was 8.9 µM in experiment [1]; 4.7 µM in experiment [2]; 0.5 µM in experiment [3]; 27.4 µM in experiment [4]; 45.1 µM in experiment [5]; 24.2 µM in experiment [6]. The 50% inhibitory concentration (IC50) in experiment [7] was found to be 38.1 µM; in experiment [8] it was 8.3 µM.

As for `Nc1nc(N)c2nc(-c3ccccc3)c(N)nc2n1` [Pteridine deriv. 11], the IC50 in experiment [1] was found to be 36.8 µM; in experiment [2] it was 26.8 µM; in experiment [3] it was 36.4 µM.

Broadly, the IC50 is the concentration at which inhibition is half-maximal.
